Here are results for 2 molecules from BindingDB's records for doi:10.1021/jm020994z (Universit&#224, 2003).

Experiment [1] can be described thus: Binding affinity of compound was tested for Sigma receptor type 1.
In experiment [2] the target is Sigma intracellular receptor 2 (Rattus norvegicus). In words: Binding affinity of compound was tested for Sigma receptor type 2.

As for `O=C(CCCCCN1CCN(c2noc3ccccc23)CC1)c1ccccc1O` [6-(4-Benzo[d]isoxazol-3-yl-piperazin-1-yl)-1-(2-hydroxy-phenyl)-hexan-1-one], in experiment [1], the inhibitory constant (Ki) was 61 nM. That is a double-digit nanomolar value.

Regarding `COc1ccccc1C(=O)CCCCCN1CCN(c2noc3ccccc23)CC1` [6-(4-Benzo[d]isoxazol-3-yl-piperazin-1-yl)-1-(2-methoxy-phenyl)-hexan-1-one], the inhibitory constant (Ki) was found to be 147 nM in experiment [2] and 4300 nM in experiment [1].
